Measurements taken from ChEMBL document CHEMBL3856264, “Discovery of novel 2',4'-dimethyl-[4,5'-bithiazol]-2-yl amino derivatives as orally bioavailable TRPV4 antagonists for the treatment of pain: Part 1” (Bioorg Med Chem Lett, 2016).
≈ marks a conversion by molar mass, not a printed value.

Assays:
[1] = molecular target: T1, Transient receptor potential cation channel subfamily V member 4 (Homo sapiens, UniProt Q9HBA0); experiment: Antagonist activity at human recombinant TRPV4 expressed in CHO-K1 cells assessed as blockade of 1000 nM 4alphaPDD-induced calcium mobilization by FLIPR assay; format: cell-based
[2] = Aqueous solubility of compound in sodium phosphate buffer containing 1% DMSO at pH 6.8; format: physicochemical
[3] = Stability in human liver microsomes assessed as compound remaining after 30 mins in presence or absence of NADPH generating system at 37 degC; format: ADME, microsome; details: read-out: Stability
[4] = molecular target: Transient receptor potential cation channel subfamily V member 1 (Homo sapiens, UniProt Q8NER1); experiment: Antagonist activity at human TRPV1 expressed in CHO cells assessed as blockade of 100 nM capsaicin-induced calcium mobilization by FLIPR assay; format: cell-based
Cytochrome P450 2C19 = Cytochrome P450 2C19 (Homo sapiens, UniProt P33261); experiment: Inhibition of CYP2C19 (unknown origin); format: ADME
[5] = Protein binding in guinea pig plasma; format: ADME, cell-free, Cavia porcellus; details: read-out: PPB (converted)
Cytochrome P450 2D6 = Cytochrome P450 2D6 (Homo sapiens, UniProt P10635); experiment: Inhibition of CYP2D6 (unknown origin); format: ADME
Cytochrome P450 2C9 = Cytochrome P450 2C9 (Homo sapiens, UniProt P11712); experiment: Inhibition of CYP2C9 (unknown origin); format: ADME
[6] = Plasma concentration in FCA-induced guinea pig mechanical hyperalgesia model at 30 mg/kg, po after 1 hr; format: ADME, organism-based, Cavia porcellus
[7] = Volume of distribution at steady state in guinea pig at 0.5 mg/kg, iv; format: ADME, organism-based, Cavia porcellus; details: in vivo, read-out: Vdss
Cytochrome P450 3A4 = Cytochrome P450 3A4 (Homo sapiens, UniProt P08684); experiment: Inhibition of CYP3A4 (unknown origin); format: ADME
[8] = Half life in guinea pig at 0.5 mg/kg, iv; format: ADME, organism-based, Cavia porcellus; details: in vivo
Cytochrome P450 1A2 = molecular target: T2, Cytochrome P450 1A2 (Homo sapiens, UniProt P05177); experiment: Inhibition of CYP1A2 (unknown origin); format: ADME
T2 sequence (P05177 whole entry): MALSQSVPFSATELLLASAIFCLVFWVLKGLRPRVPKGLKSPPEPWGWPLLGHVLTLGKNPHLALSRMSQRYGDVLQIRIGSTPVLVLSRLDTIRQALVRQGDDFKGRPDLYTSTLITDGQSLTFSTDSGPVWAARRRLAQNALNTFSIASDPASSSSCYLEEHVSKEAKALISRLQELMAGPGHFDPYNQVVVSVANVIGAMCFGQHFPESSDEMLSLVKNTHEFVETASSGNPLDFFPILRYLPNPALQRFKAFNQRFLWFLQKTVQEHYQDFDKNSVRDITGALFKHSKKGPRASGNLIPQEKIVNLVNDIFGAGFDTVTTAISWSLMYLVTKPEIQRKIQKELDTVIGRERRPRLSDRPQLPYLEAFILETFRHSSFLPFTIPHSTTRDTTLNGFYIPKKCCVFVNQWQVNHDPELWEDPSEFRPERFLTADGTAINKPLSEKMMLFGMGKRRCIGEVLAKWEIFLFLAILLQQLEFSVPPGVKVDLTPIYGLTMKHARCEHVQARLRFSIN

[9] = molecular target: Voltage-gated inwardly rectifying potassium channel KCNH2 (Homo sapiens, UniProt Q12809); experiment: Inhibition of human ERG
CHO-K1 = experiment: Selectivity ratio of IC50 for guinea pig recombinant TRPV4 expressed in CHO-K1 cells to IC50 for human recombinant TRPV4 expressed in CHO-K1 cells; format: cell-based
Salmonella typhimurium = experiment: Genotoxicity in Salmonella typhimurium by Ames test; format: toxicity, organism-based; details: salmonella enterica subsp. enterica serovar typhimurium
[10] = molecular target: T1, Transient receptor potential cation channel subfamily V member 4; experiment: Antagonist activity at human recombinant TRPV4 expressed in CHO-K1 cells assessed as blockade of hypotonic solution-induced calcium mobilization by FLIPR assay; format: cell-based
[11] = Antagonist activity at guinea pig recombinant TRPV4 expressed in CHO-K1 cells assessed as blockade of 250 nM 4alphaPDD-induced calcium mobilization by FLIPR assay; format: cell-based; details: Cavia porcellus
[12] = Oral bioavailability in guinea pig at 1 mg/kg; format: ADME, organism-based, Cavia porcellus; details: in vivo
[13] = Plasma concentration in FCA-induced guinea pig mechanical hyperalgesia model at 10 mg/kg, po after 1 hr; format: ADME, organism-based, Cavia porcellus
[14] = Cmax in guinea pig at 1 mg/kg, po; format: ADME, organism-based, Cavia porcellus; design: dose 1 mg/kg, route oral; details: in vivo
Cavia porcellus [15] = experiment: Analgesic activity in FCA-induced guinea pig mechanical hyperalgesia model assessed as reversal of mechanical hyperalgesia at 10 mg/kg, po after 1 hr (reference value: 1.6 +/- 3.4%); format: functional
[16] = Stability in guinea pig liver microsomes assessed as compound remaining after 30 mins in presence or absence of NADPH generating system at 37 degC; format: ADME, Cavia porcellus, microsome; details: read-out: Stability
[17] = Tmax in guinea pig at 1 mg/kg, po; format: ADME, organism-based, Cavia porcellus; details: in vivo
[18] = Total clearance in guinea pig at 0.5 mg/kg, iv; format: ADME, organism-based, Cavia porcellus; details: in vivo
[19] = AUC in guinea pig at 1 mg/kg, po; format: ADME, organism-based, Cavia porcellus; details: in vivo
Cavia porcellus [20] = experiment: Analgesic activity in FCA-induced guinea pig mechanical hyperalgesia model assessed as reversal of mechanical hyperalgesia at 30 mg/kg, po after 1 hr (reference value: 1.6 +/- 3.4%); format: functional

T1 sequence (Q9HBA0 whole entry): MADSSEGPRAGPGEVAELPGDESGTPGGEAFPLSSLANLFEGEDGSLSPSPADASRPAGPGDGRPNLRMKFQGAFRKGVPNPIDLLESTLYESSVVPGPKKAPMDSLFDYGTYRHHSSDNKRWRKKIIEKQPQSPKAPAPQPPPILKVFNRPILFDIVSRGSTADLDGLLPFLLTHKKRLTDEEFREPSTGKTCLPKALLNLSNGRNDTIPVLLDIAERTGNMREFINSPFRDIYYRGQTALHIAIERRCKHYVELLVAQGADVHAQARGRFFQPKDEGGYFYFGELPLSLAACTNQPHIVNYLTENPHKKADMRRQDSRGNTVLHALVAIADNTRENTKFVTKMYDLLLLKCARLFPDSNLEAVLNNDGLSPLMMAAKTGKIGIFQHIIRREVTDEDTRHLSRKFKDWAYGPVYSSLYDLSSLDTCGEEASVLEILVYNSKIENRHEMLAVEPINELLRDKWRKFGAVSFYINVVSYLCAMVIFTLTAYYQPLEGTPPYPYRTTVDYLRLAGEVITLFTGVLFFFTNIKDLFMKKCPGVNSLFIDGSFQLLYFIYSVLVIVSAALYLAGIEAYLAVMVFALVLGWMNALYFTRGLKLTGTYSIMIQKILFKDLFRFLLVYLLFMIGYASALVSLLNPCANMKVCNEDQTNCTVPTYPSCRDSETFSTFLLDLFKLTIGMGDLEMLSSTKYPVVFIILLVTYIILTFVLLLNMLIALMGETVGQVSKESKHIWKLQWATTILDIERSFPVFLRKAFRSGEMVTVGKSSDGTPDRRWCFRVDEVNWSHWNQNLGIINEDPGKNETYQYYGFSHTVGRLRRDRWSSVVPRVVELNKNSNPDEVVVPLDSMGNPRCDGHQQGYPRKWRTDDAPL
Sequence of Cytochrome P450 2C9 (P11712 whole entry): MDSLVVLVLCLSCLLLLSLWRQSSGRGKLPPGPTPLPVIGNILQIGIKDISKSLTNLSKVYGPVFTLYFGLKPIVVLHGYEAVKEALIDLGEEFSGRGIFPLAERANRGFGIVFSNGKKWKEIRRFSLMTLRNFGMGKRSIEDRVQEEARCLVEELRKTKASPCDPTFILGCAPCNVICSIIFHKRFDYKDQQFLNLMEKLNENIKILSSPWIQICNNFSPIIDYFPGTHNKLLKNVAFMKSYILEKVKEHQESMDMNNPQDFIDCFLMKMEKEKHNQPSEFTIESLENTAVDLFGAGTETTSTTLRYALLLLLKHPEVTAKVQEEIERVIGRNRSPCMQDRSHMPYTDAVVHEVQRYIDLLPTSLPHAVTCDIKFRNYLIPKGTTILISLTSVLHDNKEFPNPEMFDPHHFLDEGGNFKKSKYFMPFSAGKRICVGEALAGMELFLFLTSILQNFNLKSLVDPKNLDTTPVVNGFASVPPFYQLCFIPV
Sequence of Cytochrome P450 2D6 (P10635 whole entry): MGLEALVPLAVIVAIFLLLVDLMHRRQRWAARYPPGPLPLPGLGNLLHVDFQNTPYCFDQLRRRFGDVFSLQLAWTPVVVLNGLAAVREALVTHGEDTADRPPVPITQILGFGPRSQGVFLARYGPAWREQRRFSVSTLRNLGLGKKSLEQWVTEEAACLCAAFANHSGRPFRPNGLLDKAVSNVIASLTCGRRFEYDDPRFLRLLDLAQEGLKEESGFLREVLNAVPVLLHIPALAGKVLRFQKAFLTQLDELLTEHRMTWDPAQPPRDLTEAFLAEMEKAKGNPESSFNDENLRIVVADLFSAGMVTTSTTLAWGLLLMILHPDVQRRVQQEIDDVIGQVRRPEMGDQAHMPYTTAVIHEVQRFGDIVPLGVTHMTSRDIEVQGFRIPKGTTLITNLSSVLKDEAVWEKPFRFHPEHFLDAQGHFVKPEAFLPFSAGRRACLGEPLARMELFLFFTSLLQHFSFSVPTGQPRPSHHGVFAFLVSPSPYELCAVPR
Sequence of Cytochrome P450 3A4 (P08684 whole entry): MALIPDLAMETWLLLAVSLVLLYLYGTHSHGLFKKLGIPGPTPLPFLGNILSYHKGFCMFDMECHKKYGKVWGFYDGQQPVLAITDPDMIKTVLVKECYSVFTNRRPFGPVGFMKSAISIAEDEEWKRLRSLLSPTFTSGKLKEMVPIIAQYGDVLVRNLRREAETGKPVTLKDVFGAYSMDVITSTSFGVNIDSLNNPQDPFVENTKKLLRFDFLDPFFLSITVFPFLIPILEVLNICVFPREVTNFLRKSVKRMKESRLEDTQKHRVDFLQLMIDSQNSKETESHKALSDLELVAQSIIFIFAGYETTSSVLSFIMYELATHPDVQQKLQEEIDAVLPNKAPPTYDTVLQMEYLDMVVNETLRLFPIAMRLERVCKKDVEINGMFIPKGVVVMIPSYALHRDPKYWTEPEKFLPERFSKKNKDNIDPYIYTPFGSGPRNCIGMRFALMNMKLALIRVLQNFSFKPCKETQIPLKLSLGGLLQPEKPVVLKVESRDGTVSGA
Sequence of Voltage-gated inwardly rectifying potassium channel KCNH2 (Q12809 whole entry): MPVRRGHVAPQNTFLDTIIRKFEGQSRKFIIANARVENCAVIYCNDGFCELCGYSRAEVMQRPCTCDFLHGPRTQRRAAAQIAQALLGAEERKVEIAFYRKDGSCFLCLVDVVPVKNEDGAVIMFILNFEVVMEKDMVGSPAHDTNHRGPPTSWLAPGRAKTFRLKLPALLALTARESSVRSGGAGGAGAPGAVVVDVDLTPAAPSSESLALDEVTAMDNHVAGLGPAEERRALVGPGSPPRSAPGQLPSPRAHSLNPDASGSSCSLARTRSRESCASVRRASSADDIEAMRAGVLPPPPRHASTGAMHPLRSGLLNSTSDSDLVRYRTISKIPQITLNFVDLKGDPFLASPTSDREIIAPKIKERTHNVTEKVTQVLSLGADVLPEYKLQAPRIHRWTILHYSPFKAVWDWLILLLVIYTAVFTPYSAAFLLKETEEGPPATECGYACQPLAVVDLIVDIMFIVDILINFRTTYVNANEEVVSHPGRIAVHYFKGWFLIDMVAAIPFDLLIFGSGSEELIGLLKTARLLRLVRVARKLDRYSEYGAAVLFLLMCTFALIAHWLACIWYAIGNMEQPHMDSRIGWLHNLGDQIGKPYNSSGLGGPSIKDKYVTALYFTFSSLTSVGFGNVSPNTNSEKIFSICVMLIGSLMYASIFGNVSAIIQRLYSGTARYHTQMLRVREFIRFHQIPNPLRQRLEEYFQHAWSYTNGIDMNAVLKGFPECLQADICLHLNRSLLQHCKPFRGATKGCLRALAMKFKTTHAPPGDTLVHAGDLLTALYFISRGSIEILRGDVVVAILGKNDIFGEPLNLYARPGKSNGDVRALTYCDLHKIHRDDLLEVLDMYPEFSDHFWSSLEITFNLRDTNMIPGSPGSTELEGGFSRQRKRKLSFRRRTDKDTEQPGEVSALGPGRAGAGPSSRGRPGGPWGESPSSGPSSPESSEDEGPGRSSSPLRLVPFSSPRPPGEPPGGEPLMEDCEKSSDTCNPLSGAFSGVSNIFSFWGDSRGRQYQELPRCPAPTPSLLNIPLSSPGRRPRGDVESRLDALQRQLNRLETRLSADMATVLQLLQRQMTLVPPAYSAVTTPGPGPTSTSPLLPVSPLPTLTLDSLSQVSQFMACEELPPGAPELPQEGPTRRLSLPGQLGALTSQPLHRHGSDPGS
Sequence of Transient receptor potential cation channel subfamily V member 1 (Q8NER1 whole entry): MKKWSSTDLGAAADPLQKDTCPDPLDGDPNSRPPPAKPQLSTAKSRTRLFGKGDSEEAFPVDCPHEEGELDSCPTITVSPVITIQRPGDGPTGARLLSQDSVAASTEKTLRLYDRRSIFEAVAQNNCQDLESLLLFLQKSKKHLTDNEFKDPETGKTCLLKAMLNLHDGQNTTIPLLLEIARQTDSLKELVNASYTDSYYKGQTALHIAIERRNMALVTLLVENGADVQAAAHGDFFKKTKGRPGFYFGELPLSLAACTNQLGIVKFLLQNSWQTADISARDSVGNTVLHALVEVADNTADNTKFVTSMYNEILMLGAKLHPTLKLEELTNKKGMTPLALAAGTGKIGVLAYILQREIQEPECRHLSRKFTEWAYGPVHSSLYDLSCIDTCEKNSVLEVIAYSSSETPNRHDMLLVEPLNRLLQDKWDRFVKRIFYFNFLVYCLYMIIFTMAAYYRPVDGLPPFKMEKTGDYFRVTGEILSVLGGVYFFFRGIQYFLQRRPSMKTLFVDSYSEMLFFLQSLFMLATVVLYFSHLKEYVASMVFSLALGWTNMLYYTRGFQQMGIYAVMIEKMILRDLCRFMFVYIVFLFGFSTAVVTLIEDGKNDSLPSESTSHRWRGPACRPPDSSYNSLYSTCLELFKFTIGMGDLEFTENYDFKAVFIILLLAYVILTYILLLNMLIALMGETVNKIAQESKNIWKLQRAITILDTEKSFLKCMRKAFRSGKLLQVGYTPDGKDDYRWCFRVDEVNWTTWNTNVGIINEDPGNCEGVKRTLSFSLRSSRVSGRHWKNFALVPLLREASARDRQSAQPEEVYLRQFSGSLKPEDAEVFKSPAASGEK
Sequence of Cytochrome P450 2C19 (P33261 whole entry): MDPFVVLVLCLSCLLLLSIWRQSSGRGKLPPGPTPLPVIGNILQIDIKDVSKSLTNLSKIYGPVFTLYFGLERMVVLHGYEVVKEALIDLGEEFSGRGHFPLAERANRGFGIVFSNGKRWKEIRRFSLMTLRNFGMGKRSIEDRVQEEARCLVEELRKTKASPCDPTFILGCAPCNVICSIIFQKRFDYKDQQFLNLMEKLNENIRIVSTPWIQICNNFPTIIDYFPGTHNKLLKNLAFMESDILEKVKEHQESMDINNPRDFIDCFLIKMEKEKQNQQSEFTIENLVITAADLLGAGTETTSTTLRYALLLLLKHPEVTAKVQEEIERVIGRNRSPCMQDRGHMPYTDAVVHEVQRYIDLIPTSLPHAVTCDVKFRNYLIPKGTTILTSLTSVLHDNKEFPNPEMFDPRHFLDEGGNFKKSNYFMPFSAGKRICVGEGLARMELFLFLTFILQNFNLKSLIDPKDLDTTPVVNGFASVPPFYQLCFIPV

Cc1nc(C)c(-c2csc(Nc3ccc(C(=O)NC4CCCCC4)cn3)n2)s1
IC50 [1]: 29 nM
solubility [2]: 1.8 µM (≈ 0.744 µg/mL)
remaining at 0.5 h [3]: 55%

Cc1nc(C)c(-c2csc(Nc3ccc(C#N)cn3)n2)s1
IC50 [1]: 22 nM
solubility [2]: 1.7 µM (≈ 0.533 µg/mL)
remaining at 0.5 h [3]: 65%

COc1cccnc1Nc1nc(-c2sc(C)nc2C)cs1
IC50 [1]: > 10000 nM
remaining at 0.5 h [3]: 30.9%

Cc1nc(C)c(-c2csc(Nc3ccc(Br)cc3)n2)s1
IC50 [1]: 34 nM
remaining at 0.5 h [3]: 86.4%

COc1ccnc(Nc2nc(-c3sc(C)nc3C)cs2)c1
IC50 [1]: 410 nM
remaining at 0.5 h [3]: 0.7%

Cc1nc(C)c(-c2csc(Nc3ccc(C(=O)N4C(C)CC(=O)CC4C)cn3)n2)s1 (centres undefined)
IC50 [1]: 46 nM
solubility [2]: 45 µM (≈ 19.9 µg/mL)
remaining at 0.5 h [3]: 52.8%

Cc1nc(C)c(-c2csc(Nc3ccncc3)n2)s1
IC50 [1]: 3300 nM
remaining at 0.5 h [3]: 17.8%

Cc1nc(C)c(-c2csc(Nc3ccc(C(=O)N4CCCCC4)cn3)n2)s1
IC50 [1]: 37 nM
solubility [2]: 0.8 µM (≈ 0.32 µg/mL)
remaining at 0.5 h [3]: 74.5%

Cc1nc(C)c(-c2csc(Nc3ccc(S(=O)(=O)Nc4ccc(Cl)cc4)cn3)n2)s1
IC50 [1]: 290 nM
solubility [2]: 4.5 µM (≈ 2.15 µg/mL)
remaining at 0.5 h [3]: 83.4%

Cc1nc(C)c(-c2csc(Nc3ccc(C(=O)NCc4ccc(Cl)cc4)cn3)n2)s1
IC50 [1]: 200 nM
solubility [2]: 2.5 µM (≈ 1.14 µg/mL)
remaining at 0.5 h [3]: 50.8%

Cc1nc(C)c(-c2csc(Nc3ccc(C(=O)N4C(C)CCCC4C)cn3)n2)s1 (centres undefined)
IC50 [1]: 6.3 nM
solubility [2]: < 0.1 µM
remaining at 0.5 h [3]: 2.1%

Cc1nc(C)c(-c2csc(Nc3ccc(C(=O)O)cn3)n2)s1
IC50 [1]: > 10000 nM
solubility [2]: > 50 µM
remaining at 0.5 h [3]: 100%

Cc1nc(C)c(-c2csc(Nc3ccccc3)n2)s1
IC50 [1]: 31 nM
remaining at 0.5 h [3]: 22.8%

Cc1nc(C)c(-c2csc(Nc3ccc(NC(=O)c4ccc(Cl)cc4)cn3)n2)s1
IC50 [1]: > 10000 nM
solubility [2]: 3.9 µM (≈ 1.72 µg/mL)
remaining at 0.5 h [3]: 65.2%

Cc1nc(C)c(-c2csc(Nc3ccc(C(=O)Nc4ccc(Cl)cc4)cn3)n2)s1
IC50 [1]: 9.5 nM
solubility [2]: 10.6 µM (≈ 4.68 µg/mL)
remaining at 0.5 h [3]: 54.6%

Cc1nc(C)c(-c2csc(Nc3cccnc3)n2)s1
IC50 [1]: 490 nM
remaining at 0.5 h [3]: 39.5%

COc1ccc(Nc2nc(-c3sc(C)nc3C)cs2)nc1
IC50 [1]: 35 nM
remaining at 0.5 h [3]: 10%

CCNC(=O)c1ccc(Nc2nc(-c3sc(C)nc3C)cs2)nc1
IC50 [1]: > 10000 nM
solubility [2]: 2.8 µM (≈ 1.01 µg/mL)
remaining at 0.5 h [3]: 81.4%

Cc1nc(C)c(-c2csc(Nc3ccc(C(=O)N4CCC(=O)CC4)cn3)n2)s1
IC50 [1]: 620 nM
solubility [2]: > 50 µM
remaining at 0.5 h [3]: 1.4%

COc1cccc(Nc2nc(-c3sc(C)nc3C)cs2)n1
IC50 [1]: 23 nM
remaining at 0.5 h [3]: 40%

Cc1nc(C)c(-c2csc(Nc3cccc(C#N)n3)n2)s1
IC50 [1]: 100 nM
remaining at 0.5 h [3]: 66.4%

Cc1nc(C)c(-c2csc(Nc3ncccc3C#N)n2)s1
IC50 [1]: 4300 nM
remaining at 0.5 h [3]: 1.3%

Cc1nc(C)c(-c2csc(Nc3ccc(C(=O)N(C)c4ccc(Cl)cc4)cn3)n2)s1
IC50 [1]: 50 nM
solubility [2]: 1.4 µM (≈ 0.638 µg/mL)
remaining at 0.5 h [3]: 53.6%

Cc1nc(C)c(-c2csc(Nc3ccc(C(=O)N4C5CCC4CC(=O)C5)cn3)n2)s1
solubility [2]: 46.4 µM (≈ 20.4 µg/mL)
remaining at 0.5 h [3]: 81%

CCOC(=O)c1ccc(Nc2nc(-c3sc(C)nc3C)cs2)nc1
IC50 [1]: 11 nM
solubility [2]: 3.4 µM (≈ 1.23 µg/mL)
remaining at 0.5 h [3]: 13.5%

Cc1nc(C)c(-c2csc(Nc3ccc(NS(=O)(=O)c4ccc(Cl)cc4)cn3)n2)s1
IC50 [1]: 240 nM
solubility [2]: 1.2 µM (≈ 0.574 µg/mL)
remaining at 0.5 h [3]: 81.5%

Cc1nc(C)c(-c2csc(Nc3cc(C#N)ccn3)n2)s1
IC50 [1]: 240 nM
remaining at 0.5 h [3]: 2.8%

Cc1nc(C)c(-c2csc(Nc3ccc(C(=O)N4C5COCC4CC(=O)C5)cn3)n2)s1
IC50 [4]: > 10000 nM
INH (Cytochrome P450 2C19): > 20 µM
fraction unbound [5]: 0.1
INH (Cytochrome P450 2D6): > 20 µM
INH (Cytochrome P450 2C9): > 20 µM
concentration at 1 h [6]: 1940 ng/mL
Vd [7]: 2.5 L/kg
INH (Cytochrome P450 3A4): > 20 µM
half-life [8]: 66 min
solubility [2]: > 50 µM
INH (Cytochrome P450 1A2): > 20 µM
IC50 [9]: > 30000 nM
Ratio IC50 (CHO-K1): 1.4
Activity (Salmonella typhimurium): Non-Toxic
IC50 [10]: 3.1 nM
IC50 [11]: 27 nM
bioavailability [12]: 38.6%
concentration at 1 h [13]: 515 ng/mL
remaining at 0.5 h [3]: 100%
Cmax [14]: 59.2 ng/mL
Activity (Cavia porcellus [15]): 30.8%
remaining at 0.5 h [16]: 84%
Tmax [17]: 30 min
clearance [18]: 37.1 mL/min/kg
AUC [19]: 200 ng·h/mL
Activity (Cavia porcellus [20]): 45.6%

Cc1nc(C)c(-c2csc(Nc3ccccn3)n2)s1
IC50 [1]: 10 nM
remaining at 0.5 h [3]: 1.1%

Cc1nc(C)c(-c2csc(Nc3ncccn3)n2)s1
IC50 [1]: 10000 nM
remaining at 0.5 h [3]: 0.3%
